The subject of data set [1] is organotypic hippocampal slice cultures (OHSCs). Kind of data set: NMDA-induced excitotoxicity in organotypic hippocampal slice cultures, propidium iodide (PI) uptake. Format: cell-based, rat. The procedure:
To test the neuroprotective qualities of test media, OHSCs were first preincubated with PI for 24 hours. Fluorescent photomicrographs were taken, and used to determine the level of background staining. OHSCs were then transferred to test media one hour before 10 μM NMDA was added. Photomicrographs were taken again after 24 hours of NMDA exposure, and the change in PI staining intensity was quantified.
Rat organotypic hippocampal slice cultures (400 μm thick) were prepared from P9 Sprague-Dawley rats, using the method of Stoppini and coworkers^9. OHSCs were cultured in slice medium (50% BME, 25% EBSS, 23% horse serum, 7.5 mg/ml D-glucose, 1 mM L-glutamine and 25 U/ml PEST) for 12-14 days before experiments commenced.
OHSCs were transferred to test media one hour before exposure to 10 μM NMDA for 24 h. The degree of NMDA-induced excitotoxicity was determined by comparing propidium iodide (PI) uptake prior to exposure with that following exposure. Pictures were captured using a digital camera (Olympus DP50) coupled to an inverted fluorescence microscope (Olympus IX70), equipped with a red long-pass WG fluorescence filter. Uptake of PI was quantified as the mean pixel intensity of epifluorescence, over the whole slice, or in defined sub-regions (ImageJ v1.29x).

The subject of data set [2] is cells in the dentate gyrus of OHSCs. Kind of data set: Immunofluorescence count of dentate gyrus cells double-labelled for PI and DCX or NeuN after NMDA. Format: cell-based, rat. The procedure:
To determine the cell types which were protected by pentinin, we fixed OHSCs and performed immunofluorescence for markers of neuronally committed progenitors (DCX) and neurons (NeuN). Cells in the dentate gyrus were counted, and the percentage of cells double-labelled for PI and each marker was determined.
To characterise cell death, OHSCs were cultured in N2 medium with different concentrations of NMDA (in the presence of PI). After 24 h, OHSCs were washed in PBS and fixed in 4% paraformaldehyde (overnight, 4° C.). OHSCs were blocked and permeabilised by incubation for two hours in PTS (0.1M sodium phosphate buffer, 0.3% triton X-100 and 1% donkey serum (Jackson Immunoresearch Laboratories Inc., West Grove, Pa.)) at room temperature (RT), then incubated overnight (rocking, 4° C.) with mouse anti-NeuN antibody (1:500, Chemicon International Inc, Temecula, Calif.), rabbit anti-Caspase3A antibody (1:250, Cell Signalling Technology), and goat anti doublecortin antibody (Dcx, 1:400, Santa Cruz Biotechnology, Santa Cruz, USA). After thorough washing (3×30 mins in PTS, rocking), OHSCs were incubated overnight (rocking, 4° C.) with donkey anti-mouse Alexa 647-conjugated antibody (1:800, Molecular Probes, Leiden, Netherlands), donkey anti-rabbit Alexa 488-conjugated antibody (1:800, Molecular Probes) and donkey anti-goat Alexa 488-conjugated antibody (1:800, Molecular Probes). OHSCs were washed thoroughly and mounted in Prolong Gold mounting medium (Molecular Probes). Colocalisation of PI and/or Caspase3A staining with NeuN and Dcx immunofluorescence was determined by confocal microscopy (Leica TCS SP2, Leica Microsystems AG, Wetzlar, Germany).

The test system of data set [3] is organotypic hippocampal slice cultures (OHSCs). The following applies: high doses, literature ref 10; cited from earlier work.

The source of these data is US20090099095A1, “Novel neuroprotective peptide” (priority 2007, published 2009).

Take “tyr, thr, pro, lys, thr (YTPKT; Human) [pentinin, pentameric peptide fragment corresponding to residues 26-30 of the insulin B chain]”: the “effect on excitotoxicity induced by NMDA” value in data set [1] (100 μM peptide in unconditioned medium) is listed as “reduce excitotoxicity”. The “effective dose in dose response assay” value in data set [1] (synthetic peptide added to unconditioned medium, results not shown) was 100 µM. Further, in data set [2] (100 pM pentinin), the “reduction of percentage of immature neuronal marker (DCX) cells co-labelled with PI” value was found to be 86% and the “reduction of percentage of mature neuronal marker (NeuN) cells co-labelled with PI” value is listed as 64%. The “number of neurons killed by NMDA-induced toxicity” value in data set [2] (100 pM synthetic pentinin) is recorded as “markedly reduced”.

B1: glial-derived neurotrophic factor (protein, UniProt P39905 78-211, looked up)
Glial cell line-derived …: SPDKQMAVLPRRERNRQAAAANPENSRGKGRRGQRGKNRGCVLTAIHLNVTDLGLGYETKEELIFRYCSGSCDAAETTYDKILKNLSRNRRLVSDKVGQACCRPIAFDDDLSFLDDNLVYHILRKHSAKRCGCI
notes: recombinant protein added to control medium at 1 ng/ml
On to B1, for which the “effect on NMDA-induced excitotoxicity / PI staining (in words)” value in data set [1] (whole slice, 10 μM NMDA 24 h, GDNF at 1 ng/ml where added) is given as “did not reduce excitotoxicity”. Further, the “doses at which neuroprotective in OHSCs” value in data set [3] was 50 to 100 ng/mL.
